According to US4337199A, “Antibiotic β-lactam compounds, production thereof, and their use as antimicrobial agent” (Sanraku-Ocean Co., Ltd., priority 1978, dated 1982):
In brackets after ≈: the same amount, converted by molar mass. Like-named read-outs stand apart in the source and are kept apart here. Blank lines part the entries; values can stand above or below the compound they belong to.

Key:
Assay in all cases: minimum inhibitory concentration, agar dilution assay
Type in all cases: cell-based
[1] = tested on: Proteus vulgaris GN76; conditions: read-out: minimum inhibitory concentration
Protocol: (§1) The antibiotic activities shown in Tables I-1 to I-8 above were determined in the following manner.
(§2) The minimum inhibitory concentrations of the compounds of formula (I-a-1) or (I-b-1) in Tables I-1 to I-7 and the known compounds in Table I-8 on the various microorganisms shown in the above tables were measured by an agar dilution assay method using a brain heart infusion agar medium "Difco" (a product of Difco Laboratories Inc.)
(§3) A sample of the test compound was dissolved in sterile distilled water and diluted to prepare a two-fold dilution series of the compound solution. In a petri plate of 9 cm diameter, 1 ml of the compound solution was added to 9 ml of molten sterile heart infusion agar medium (Difco Laboratories Inc.) at about 60° C. to prepare the compound-containing agar plate. An overnight culture of each test organism indicated in the above table which was prepared by stationary cultivation in Trypto-Soy broth (Eiken Chemi. Co., Ltd.) at 35° C. for 18 to 20 hours, was diluted with the Trypto-Soy broth to give approximately 10^8 cells/ml and the diluted inoculum was inoculated onto the compound-containing agar plates. After cultivating the plates at 35° C. for 20 hours, the growth of the organism was observed. The minimum concentration of the compound at which no growth of the microorganism was noted was determined, and defined as the minimum inhibitory concentration of the test compound.

[2] = tested on: Proteus sp. P22; conditions: read-out: minimum inhibitory concentration
Protocol: as §1, §2, §3

[3] = tested on: Staphylococcus epidermidis; conditions: read-out: minimum inhibitory concentration
Protocol: as §1, §2, §3

[4] = tested on: Pseudomonas aeruginosa NCTC10490; conditions: read-out: minimum inhibitory concentration
Protocol: as §1, §2, §3

[5] = tested on: Serratia marcescens S18; conditions: read-out: minimum inhibitory concentration
Protocol: as §1, §2, §3

[6] = tested on: Sarcina lutea; conditions: Micrococcus luteus, read-out: minimum inhibitory concentration
Protocol: as §1, §2, §3

[7] = tested on: Staphylococcus aureus Russell; conditions: read-out: minimum inhibitory concentration
Protocol: as §1, §2, §3

[8] = tested on: Staphylococcus aureus Smith; conditions: read-out: minimum inhibitory concentration
Protocol: as §1, §2, §3

[9] = tested on: Staphylococcus aureus FDA 209P; conditions: FDA209P, read-out: minimum inhibitory concentration
Protocol: as §1, §2, §3

[10] = tested on: Proteus mirabilis P6; conditions: read-out: minimum inhibitory concentration
Protocol: as §1, §2, §3

[11] = tested on: Pseudomonas aeruginosa IFO3445; conditions: read-out: minimum inhibitory concentration
Protocol: as §1, §2, §3

[12] = tested on: Serratia marcescens T55; conditions: read-out: minimum inhibitory concentration
Protocol: as §1, §2, §3

[13] = tested on: Providencia sp. P8; conditions: read-out: minimum inhibitory concentration
Protocol: as §1, §2, §3

[14] = tested on: Escherichia coli K-12; conditions: read-out: minimum inhibitory concentration
Protocol: as §1, §2, §3

[15] = tested on: Proteus rettgeri P7; conditions: Providencia rettgeri, read-out: minimum inhibitory concentration
Protocol: as §1, §2, §3

[16] = tested on: Enterobacter sp. E8; conditions: read-out: minimum inhibitory concentration
Protocol: as §1, §2, §3

[17] = tested on: Alcaligenes faecalis A 1; conditions: read-out: minimum inhibitory concentration
Protocol: as §1, §2, §3

[18] = tested on: Bacillus subtilis ATCC 6633; conditions: read-out: minimum inhibitory concentration
Protocol: as §1, §2, §3

[19] = tested on: Enterobacter cloacae 45; conditions: read-out: minimum inhibitory concentration
Protocol: as §1, §2, §3

[20] = tested on: Escherichia coli RGN 823; conditions: read-out: minimum inhibitory concentration
Protocol: as §1, §2, §3

[21] = tested on: Comamonas terrigena B-996; conditions: read-out: minimum inhibitory concentration
Protocol: as §1, §2, §3

[22] = tested on: Citrobacter freundii GN 346; conditions: read-out: minimum inhibitory concentration
Protocol: as §1, §2, §3

[23] = tested on: Enterobacter aerogenes E19; conditions: Klebsiella aerogenes, read-out: minimum inhibitory concentration
Protocol: as §1, §2, §3

[24] = tested on: Klebsiella pneumoniae K-13; conditions: read-out: minimum inhibitory concentration
Protocol: as §1, §2, §3

[25] = GN76, agar dilution, 35° C., 20 hours
[26] = agar dilution, 35° C., 20 hours
[27] = NCTC10490, agar dilution, 35° C., 20 hours
[28] = S18, agar dilution, 35° C., 20 hours
[29] = P6, agar dilution, 35° C., 20 hours
[30] = IFO3445, agar dilution, 35° C., 20 hours
[31] = T55, agar dilution, 35° C., 20 hours
[32] = SP.P8, agar dilution, 35° C., 20 hours
[33] = K12, agar dilution, 35° C., 20 hours
[34] = P7, agar dilution, 35° C., 20 hours
[35] = SP.E8, agar dilution, 35° C., 20 hours
[36] = A1, agar dilution, 35° C., 20 hours
[37] = ATCC6633, agar dilution, 35° C., 20 hours
[38] = Enterobacter cloacae, 45, agar dilution, 35° C., 20 hours
[39] = RGN823, agar dilution, 35° C., 20 hours
[40] = B996, agar dilution, 35° C., 20 hours
[41] = GN346, agar dilution, 35° C., 20 hours
[42] = E19, agar dilution, 35° C., 20 hours
[43] = K13, agar dilution, 35° C., 20 hours

MIC [1, 25]: 12.5 µg/mL (≈ 40.8 µM)
MIC [2, 26]: 12.5 µg/mL (≈ 40.8 µM)
MIC [3, 26]: 0.05 µg/mL (≈ 0.163 µM)
MIC [4, 27]: 50 µg/mL (≈ 163 µM)
MIC [5, 28]: 12.5 µg/mL (≈ 40.8 µM)
MIC [6, 26]: < 0.007 µg/mL
MIC [7, 26]: 0.013 µg/mL (≈ 0.0424 µM)
MIC [8, 26]: 0.013 µg/mL (≈ 0.0424 µM)
MIC [9, 26]: < 0.007 µg/mL
MIC [10, 29]: 0.39 µg/mL (≈ 1.27 µM)
MIC [11, 30]: 12.5 µg/mL (≈ 40.8 µM)
MIC [12, 31]: 25 µg/mL (≈ 81.6 µM)
MIC [13, 32]: 0.2 µg/mL (≈ 0.653 µM)
MIC [14, 33]: 0.39 µg/mL (≈ 1.27 µM)
MIC [15, 34]: 3.13 µg/mL (≈ 10.2 µM)
MIC [16, 35]: 0.78 µg/mL (≈ 2.55 µM)
MIC [17, 36]: 6.25 µg/mL (≈ 20.4 µM)
MIC [18, 37]: < 0.007 µg/mL
MIC [19, 38]: 12.5 µg/mL (≈ 40.8 µM)
MIC [20, 39]: 3.13 µg/mL (≈ 10.2 µM)
MIC [21, 40]: < 0.007 µg/mL
MIC [22, 41]: 6.25 µg/mL (≈ 20.4 µM)
MIC [23, 42]: 6.25 µg/mL (≈ 20.4 µM)
MIC [24, 43]: 25 µg/mL (≈ 81.6 µM)
Compound: CC(O)C1C(=O)N2C(C(=O)O)=C(Sc3ccccn3)CC12 (stereo not drawn)

Compound: CCC1C(=O)N2C(C(=O)[O-])=C(Sc3ccccc3)CC12.[Na+] (stereo not drawn)
MIC ([1]; GN76, 20 h): 150 µg/mL
MIC ([2]; 20 h): 75 µg/mL
MIC ([3]; 20 h): < 0.01 µg/mL
MIC ([4]; NCTC10490, 20 h): 4.7 µg/mL
MIC ([5]; S18, 20 h): 75 µg/mL
MIC ([6]; 20 h): < 0.01 µg/mL
MIC ([7]; 20 h): < 0.01 µg/mL
MIC ([8]; 20 h): 0.1 µg/mL
MIC ([9]; 20 h): < 0.01 µg/mL
MIC ([10]; P6, 20 h): 75 µg/mL
MIC ([11]; IFO3445, 20 h): 18.8 µg/mL
MIC ([12]; T55, 20 h): 150 µg/mL
MIC ([13]; SP.P8, 20 h): 18.8 µg/mL
MIC ([14]; K12, 20 h): 37.5 µg/mL
MIC ([15]; P7, 20 h): 75 µg/mL
MIC ([16]; SP.E8, 20 h): 75 µg/mL
MIC ([17]; A1, 20 h): 4.7 µg/mL
MIC ([18]; ATCC6633, 20 h): 0.07 µg/mL
MIC ([19]; Enterobacter cloacae, 45, 20 h): 150 µg/mL
MIC ([20]; RGN823, 20 h): 37.5 µg/mL
MIC ([21]; B996, 20 h): < 0.01 µg/mL
MIC ([22]; GN346, 20 h): 150 µg/mL
MIC ([23]; E19, 20 h): 150 µg/mL
MIC ([24]; K13, 20 h): > 150 µg/mL

MIC [1, 25]: 50 µg/mL (≈ 183 µM)
MIC [2, 26]: 100 µg/mL (≈ 366 µM)
MIC [3, 26]: 3.13 µg/mL (≈ 11.5 µM)
MIC [4, 27]: 12.5 µg/mL (≈ 45.7 µM)
MIC [5, 28]: 25 µg/mL (≈ 91.5 µM)
MIC [6, 26]: 1.56 µg/mL (≈ 5.71 µM)
MIC [7, 26]: 3.13 µg/mL (≈ 11.5 µM)
MIC [8, 26]: 3.13 µg/mL (≈ 11.5 µM)
MIC [9, 26]: 0.39 µg/mL (≈ 1.43 µM)
MIC [10, 29]: 50 µg/mL (≈ 183 µM)
MIC [11, 30]: 12.5 µg/mL (≈ 45.7 µM)
MIC [12, 31]: 50 µg/mL (≈ 183 µM)
MIC [13, 32]: 6.25 µg/mL (≈ 22.9 µM)
MIC [14, 33]: 3.13 µg/mL (≈ 11.5 µM)
MIC [15, 34]: 50 µg/mL (≈ 183 µM)
MIC [16, 35]: 6.25 µg/mL (≈ 22.9 µM)
MIC [17, 36]: 6.25 µg/mL (≈ 22.9 µM)
MIC [18, 37]: 6.25 µg/mL (≈ 22.9 µM)
MIC [19, 38]: 6.25 µg/mL (≈ 22.9 µM)
MIC [20, 39]: 12.5 µg/mL (≈ 45.7 µM)
MIC [21, 40]: 0.1 µg/mL (≈ 0.366 µM)
MIC [22, 41]: 12.5 µg/mL (≈ 45.7 µM)
MIC [23, 42]: 12.5 µg/mL (≈ 45.7 µM)
MIC [24, 43]: 25 µg/mL (≈ 91.5 µM)
Compound: CC(O)[C@H]1C(=O)N2C(C(=O)O)=C(SCCO)C[C@H]12 (stereo partly drawn) [R1 --OH*, R21 --CH2 CH2 OH]

MIC [1, 25]: 25 µg/mL (≈ 81.6 µM)
MIC [2, 26]: 12.5 µg/mL (≈ 40.8 µM)
MIC [3, 26]: 1.56 µg/mL (≈ 5.09 µM)
MIC [4, 27]: 25 µg/mL (≈ 81.6 µM)
MIC [5, 28]: 50 µg/mL (≈ 163 µM)
MIC [6, 26]: 0.013 µg/mL (≈ 0.0424 µM)
MIC [7, 26]: 0.39 µg/mL (≈ 1.27 µM)
MIC [8, 26]: 0.39 µg/mL (≈ 1.27 µM)
MIC [9, 26]: 0.05 µg/mL (≈ 0.163 µM)
MIC [10, 29]: 12.5 µg/mL (≈ 40.8 µM)
MIC [11, 30]: 12.5 µg/mL (≈ 40.8 µM)
MIC [12, 31]: 100 µg/mL (≈ 326 µM)
MIC [13, 32]: 3.13 µg/mL (≈ 10.2 µM)
MIC [14, 33]: 6.25 µg/mL (≈ 20.4 µM)
MIC [15, 34]: 25 µg/mL (≈ 81.6 µM)
MIC [16, 35]: 25 µg/mL (≈ 81.6 µM)
MIC [17, 36]: 0.78 µg/mL (≈ 2.55 µM)
MIC [18, 37]: 0.78 µg/mL (≈ 2.55 µM)
MIC [19, 38]: 100 µg/mL (≈ 326 µM)
MIC [20, 39]: 12.5 µg/mL (≈ 40.8 µM)
MIC [21, 40]: 0.2 µg/mL (≈ 0.653 µM)
MIC [22, 41]: 100 µg/mL (≈ 326 µM)
MIC [23, 42]: > 100 µg/mL
MIC [24, 43]: 50 µg/mL (≈ 163 µM)
Compound: CC(O)[C@H]1C(=O)N2C(C(=O)O)=C(Sc3ccccn3)C[C@H]12 (stereo partly drawn)
